{"source": "patent US20070049564A1", "about": "(Wyeth, priority 2005, published 2007)", "key": {"E. coli GC 4559": {"system": "E. coli GC 4559", "experiment": "MIC, broth microdilution", "details": "Escherichia coli"}, "E. faecalis GC 2267": {"system": "E. faecalis GC 2267", "experiment": "MIC, broth microdilution", "details": "Enterococcus faecalis"}, "S. aureus GC 1131": {"system": "S. aureus GC 1131", "experiment": "MIC, broth microdilution", "details": "Staphylococcus aureus"}, "E. coli GC 2272": {"system": "E. coli GC 2272", "experiment": "MIC, broth microdilution", "details": "Escherichia coli"}, "Staph. aureus Smith": {"system": "Staph. aureus Smith", "experiment": "In vivo activity (oral, iv; ED50) against Staph. aureus Smith in mice", "description": "Representative examples of compounds of Formula I were tested for the oral efficacy using S. aureus Smith in mice."}, "P. aeruginosa GC 2214": {"system": "P. aeruginosa GC 2214", "experiment": "MIC, broth microdilution", "details": "Pseudomonas aeruginosa"}, "S. agalactiae GC 4564": {"system": "S. agalactiae GC 4564", "experiment": "MIC, broth microdilution", "details": "Streptococcus agalactiae"}, "E. coli GC 3226": {"system": "E. coli GC 3226", "experiment": "MIC, broth microdilution", "details": "Escherichia coli"}, "S. aureus GC 6335": {"system": "S. aureus GC 6335", "experiment": "MIC, broth microdilution", "details": "Staphylococcus aureus"}, "E. coli GC 2232": {"system": "E. coli GC 2232", "experiment": "MIC, broth microdilution", "details": "Escherichia coli"}, "E. coli GC 2234": {"system": "E. coli GC 2234", "experiment": "MIC, broth microdilution", "details": "Escherichia coli"}, "E. coli GC 2203": {"system": "E. coli GC 2203", "experiment": "MIC, broth microdilution", "details": "Escherichia coli"}, "S. pneumoniae+ GC 4465": {"system": "S. pneumoniae+ GC 4465", "experiment": "MIC, broth microdilution", "details": "Streptococcus pneumoniae"}, "E. faecalis GC 2265": {"system": "E. faecalis GC 2265", "experiment": "MIC, broth microdilution", "details": "Enterococcus faecalis"}, "E. coli GC 2236": {"system": "E. coli GC 2236", "experiment": "MIC, broth microdilution", "details": "Escherichia coli"}, "E. coli GC 2271": {"system": "E. coli GC 2271", "experiment": "MIC, broth microdilution", "details": "Escherichia coli"}, "S. pneumoniae* GC 4465": {"system": "S. pneumoniae* GC 4465", "experiment": "MIC, broth microdilution", "details": "Streptococcus pneumoniae"}, "S. pyogenes GC 4563": {"system": "S. pyogenes GC 4563", "experiment": "MIC, broth microdilution", "details": "Streptococcus pyogenes"}, "E. faecalis GC 4555": {"system": "E. faecalis GC 4555", "experiment": "MIC, broth microdilution", "details": "Enterococcus faecalis"}, "S. epidermidis GC 4935": {"system": "S. epidermidis GC 4935", "experiment": "MIC, broth microdilution", "details": "Staphylococcus epidermidis"}, "[1]": {"details": "read-out: MINIMAL INHIBITORY CONCENTRATION MIC, pre-incubated in Mouse Serum"}, "[2]": {"details": "read-out: MINIMAL INHIBITORY CONCENTRATION MIC, pre-incubated in Water"}}, "note": "Read-outs that look alike come from different tables or passages of the source.", "data": [{"molecule": "CCCCN(CC(=O)Nc1cc(N(C)C)c2c(c1O)C(=O)C1=C(O)[C@]3(O)C(=O)C(C(N)=O)=C(O)[C@@H](N(C)C)[C@@H]3C[C@@H]1C2)C(=O)OCOC(=O)c1ccc(-c2ccccc2)cc1", "note": "[Example 21, ({[(2-{[(5aR,6aS,7S,10aS)-9-(aminocarbonyl)-4,7-bis(dimethylamino)-1,8,10a,11-tetrahydroxy-10,12-dioxo-5,5a,6,6a,7,10,10a,12-octahydrotetracen-2-yl]amino}-2-oxoethyl)(butyl)amino]carbonyl}oxy)methyl 1,1′-biphenyl-4-carboxylate]", "values": [{"measurement": "MIC", "setting": "E. coli GC 4559; GC4559, read-out: MINIMAL INHIBITORY CONCENTRATION MIC, pre-incubated in Mouse Serum", "value": 1, "unit": "µg/mL"}, {"measurement": "MIC", "setting": "E. coli GC 4559; GC4559, read-out: MINIMAL INHIBITORY CONCENTRATION MIC, pre-incubated in Water", "value": "> 64", "unit": "µg/mL"}, {"measurement": "MIC", "setting": "E. faecalis GC 2267; GC2267, read-out: MINIMAL INHIBITORY CONCENTRATION MIC, pre-incubated in Mouse Serum", "value": 2, "unit": "µg/mL"}, {"measurement": "MIC", "setting": "E. faecalis GC 2267; GC2267, read-out: MINIMAL INHIBITORY CONCENTRATION MIC, pre-incubated in Water", "value": 64, "unit": "µg/mL"}, {"measurement": "MIC", "setting": "S. aureus GC 1131; GC1131, read-out: MINIMAL INHIBITORY CONCENTRATION MIC, pre-incubated in Mouse Serum", "value": 1, "unit": "µg/mL"}, {"measurement": "MIC", "setting": "S. aureus GC 1131; GC1131, read-out: MINIMAL INHIBITORY CONCENTRATION MIC, pre-incubated in Water", "value": 64, "unit": "µg/mL"}, {"measurement": "MIC", "setting": "E. coli GC 2272; GC2272, read-out: MINIMAL INHIBITORY CONCENTRATION MIC, pre-incubated in Mouse Serum", "value": 1, "unit": "µg/mL"}, {"measurement": "MIC", "setting": "E. coli GC 2272; GC2272, read-out: MINIMAL INHIBITORY CONCENTRATION MIC, pre-incubated in Water", "value": "> 64", "unit": "µg/mL"}, {"measurement": "ED50", "setting": "Staph. aureus Smith; Staphylococcus aureus, in Mus musculus, po, read-out: ED50 Staph Smith SOD", "value": "> 32", "unit": "mg/kg"}, {"measurement": "ED50", "setting": "Staph. aureus Smith; iv, read-out: ED50 Staph Smith SIV", "value": 0.77, "unit": "mg/kg"}, {"measurement": "MIC", "setting": "P. aeruginosa GC 2214; GC2214, read-out: MINIMAL INHIBITORY CONCENTRATION MIC, pre-incubated in Mouse Serum", "value": "> 64", "unit": "µg/mL"}, {"measurement": "MIC", "setting": "P. aeruginosa GC 2214; GC2214, read-out: MINIMAL INHIBITORY CONCENTRATION MIC, pre-incubated in Water", "value": "> 64", "unit": "µg/mL"}, {"measurement": "MIC", "setting": "S. agalactiae GC 4564; GC4564, read-out: MINIMAL INHIBITORY CONCENTRATION MIC, pre-incubated in Mouse Serum", "value": 0.5, "unit": "µg/mL"}, {"measurement": "MIC", "setting": "S. agalactiae GC 4564; GC4564, read-out: MINIMAL INHIBITORY CONCENTRATION MIC, pre-incubated in Water", "value": 8, "unit": "µg/mL"}, {"measurement": "MIC", "setting": "E. coli GC 3226; GC3226, read-out: MINIMAL INHIBITORY CONCENTRATION MIC, pre-incubated in Mouse Serum", "value": 8, "unit": "µg/mL"}, {"measurement": "MIC", "setting": "E. coli GC 3226; GC3226, read-out: MINIMAL INHIBITORY CONCENTRATION MIC, pre-incubated in Water", "value": "> 64", "unit": "µg/mL"}, {"measurement": "MIC", "setting": "S. aureus GC 6335; GC6335, read-out: MINIMAL INHIBITORY CONCENTRATION MIC, pre-incubated in Mouse Serum", "value": 2, "unit": "µg/mL"}, {"measurement": "MIC", "setting": "S. aureus GC 6335; GC6335, read-out: MINIMAL INHIBITORY CONCENTRATION MIC, pre-incubated in Water", "value": 64, "unit": "µg/mL"}, {"measurement": "MIC", "setting": "E. coli GC 2232; GC2232, read-out: MINIMAL INHIBITORY CONCENTRATION MIC, pre-incubated in Mouse Serum", "value": 1, "unit": "µg/mL"}, {"measurement": "MIC", "setting": "E. coli GC 2232; GC2232, read-out: MINIMAL INHIBITORY CONCENTRATION MIC, pre-incubated in Water", "value": "> 64", "unit": "µg/mL"}, {"measurement": "MIC", "setting": "E. coli GC 2234; GC2234, read-out: MINIMAL INHIBITORY CONCENTRATION MIC, pre-incubated in Mouse Serum", "value": 0.5, "unit": "µg/mL"}, {"measurement": "MIC", "setting": "E. coli GC 2234; GC2234, read-out: MINIMAL INHIBITORY CONCENTRATION MIC, pre-incubated in Water", "value": "> 64", "unit": "µg/mL"}, {"measurement": "MIC", "setting": "E. coli GC 2203; GC2203, read-out: MINIMAL INHIBITORY CONCENTRATION MIC, pre-incubated in Mouse Serum", "value": 0.5, "unit": "µg/mL"}, {"measurement": "MIC", "setting": "E. coli GC 2203; GC2203, read-out: MINIMAL INHIBITORY CONCENTRATION MIC, pre-incubated in Water", "value": "> 64", "unit": "µg/mL"}, {"measurement": "MIC", "setting": "S. pneumoniae+ GC 4465; [1]", "value": 4, "unit": "µg/mL"}, {"measurement": "MIC", "setting": "S. pneumoniae+ GC 4465; [2]", "value": 4, "unit": "µg/mL"}, {"measurement": "MIC", "setting": "E. faecalis GC 2265; GC2265, read-out: MINIMAL INHIBITORY CONCENTRATION MIC, pre-incubated in Mouse Serum", "value": 1, "unit": "µg/mL"}, {"measurement": "MIC", "setting": "E. faecalis GC 2265; GC2265, read-out: MINIMAL INHIBITORY CONCENTRATION MIC, pre-incubated in Water", "value": 64, "unit": "µg/mL"}, {"measurement": "MIC", "setting": "E. coli GC 2236; GC2236, read-out: MINIMAL INHIBITORY CONCENTRATION MIC, pre-incubated in Mouse Serum", "value": 1, "unit": "µg/mL"}, {"measurement": "MIC", "setting": "E. coli GC 2236; GC2236, read-out: MINIMAL INHIBITORY CONCENTRATION MIC, pre-incubated in Water", "value": "> 64", "unit": "µg/mL"}, {"measurement": "MIC", "setting": "E. coli GC 2271; GC2271, read-out: MINIMAL INHIBITORY CONCENTRATION MIC, pre-incubated in Mouse Serum", "value": 0.5, "unit": "µg/mL"}, {"measurement": "MIC", "setting": "E. coli GC 2271; GC2271, read-out: MINIMAL INHIBITORY CONCENTRATION MIC, pre-incubated in Water", "value": "> 64", "unit": "µg/mL"}, {"measurement": "MIC", "setting": "S. pneumoniae* GC 4465; [1]", "value": 0.25, "unit": "µg/mL"}, {"measurement": "MIC", "setting": "S. pneumoniae* GC 4465; [2]", "value": 0.5, "unit": "µg/mL"}, {"measurement": "MIC", "setting": "S. pyogenes GC 4563; GC4563, read-out: MINIMAL INHIBITORY CONCENTRATION MIC, pre-incubated in Mouse Serum", "value": 0.25, "unit": "µg/mL"}, {"measurement": "MIC", "setting": "S. pyogenes GC 4563; GC4563, read-out: MINIMAL INHIBITORY CONCENTRATION MIC, pre-incubated in Water", "value": 0.12, "unit": "µg/mL"}, {"measurement": "MIC", "setting": "E. faecalis GC 4555; GC4555, read-out: MINIMAL INHIBITORY CONCENTRATION MIC, pre-incubated in Mouse Serum", "value": 1, "unit": "µg/mL"}, {"measurement": "MIC", "setting": "E. faecalis GC 4555; GC4555, read-out: MINIMAL INHIBITORY CONCENTRATION MIC, pre-incubated in Water", "value": 64, "unit": "µg/mL"}, {"measurement": "MIC", "setting": "S. epidermidis GC 4935; GC4935, read-out: MINIMAL INHIBITORY CONCENTRATION MIC, pre-incubated in Mouse Serum", "value": 2, "unit": "µg/mL"}, {"measurement": "MIC", "setting": "S. epidermidis GC 4935; GC4935, read-out: MINIMAL INHIBITORY CONCENTRATION MIC, pre-incubated in Water", "value": 64, "unit": "µg/mL"}]}]}
